Experimental data from patent US9345677B2, “Compositions, methods and kits relating to HER-2 cleavage” (Incyte Corporation, priority 2003, dated 2016).

Molecular target: T1, ADAM10 (Homo sapiens, UniProt O14672)
T1 construct: purchased R&D Systems 936-AD
T1 sequence (O14672 214-748): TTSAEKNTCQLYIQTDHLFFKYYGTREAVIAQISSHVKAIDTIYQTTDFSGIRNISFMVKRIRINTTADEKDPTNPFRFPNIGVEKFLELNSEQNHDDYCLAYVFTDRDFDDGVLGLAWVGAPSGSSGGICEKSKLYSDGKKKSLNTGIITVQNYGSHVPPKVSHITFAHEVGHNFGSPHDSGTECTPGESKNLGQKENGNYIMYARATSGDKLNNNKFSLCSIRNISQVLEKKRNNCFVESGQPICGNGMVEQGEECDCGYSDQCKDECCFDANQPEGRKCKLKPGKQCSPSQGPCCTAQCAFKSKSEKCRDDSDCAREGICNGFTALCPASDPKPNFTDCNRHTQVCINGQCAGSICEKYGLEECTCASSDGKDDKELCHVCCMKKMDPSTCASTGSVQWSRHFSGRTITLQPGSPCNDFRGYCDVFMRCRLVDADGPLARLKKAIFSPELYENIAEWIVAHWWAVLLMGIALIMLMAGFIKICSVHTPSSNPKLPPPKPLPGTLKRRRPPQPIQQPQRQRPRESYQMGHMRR
Test: ADAM10 fluorogenic peptide biochemical assay
Protocol: 5 mM Compound stock was prepared in DMSO. Compound plate was prepared by 2-fold dilution for 11-point curve, with highest concentration of 500 μM. 1 μL of compound in DMSO was transferred from compound plate to the assay plate. Enzyme solution was prepared in assay buffer with a concentration of 100 ng/50 μL. Substrate ((7-methoxycoumarin-4-yl)-acetyl-Pro-Leu-Ala-Gln-Ala-Val-(3-[2,4-dinitrophenyl]-L-2,3-diaminopropionyl)-Arg-Ser-Ser-Ser-Arg-NH2 (SEQ ID NO:48)) solution was prepared in assay buffer with a concentration of 20 μM. 50 μL of enzyme solution was added to the assay plate. The assay plate was incubated for 5 minutes. 50 μL of substrate solution was then added to the assay plate. The plate was protected from light and incubated at 37° C. for 4 hours. The reaction was stopped by adding 10 μL of 500 mM EDTA solution. The plate was read on a plate reader with excitation of 320 nm and emission of 405 nm.
Source of enzymes for biochemical assays: Except for ADAM17 and MT1-MMP, all recombinant human MMPs and ADAMs were obtained from R&D Systems (Minneapolis, Minn.). […]
In general, 5 mM compound stock was prepared in DMSO. […] The plate was read on a plate reader with excitation of 320 nm and emission of 405 nm. Percentage of inhibition was calculated for each concentration and IC50 value was generated from curve fitting. […]

- IC50: 98 nM
Structure (SMILES): Cc1cc([N+](=O)[O-])ccc1N1CCN(C(=O)[C@@H]2[C@@H](C(=O)NO)CC3(CC3)CN2C)CC1 [Compound 5, (6S,7S)-N-hydroxy-5-methyl-6-{[4-(2-methyl-4-nitrophenyl)piperazin-1-yl]-carbonyl}-5-azaspiro[2.5]octane-7-carboxamide]
